Laboratory results taken from ChEMBL document CHEMBL3994622, “Design and synthesis of new RAF kinase-inhibiting antiproliferative quinoline derivatives. Part 2: Diarylurea derivatives” (Eur J Med Chem, 2017).

Assays:
Format in all cases: functional
HT-29 [1] = test: Growth inhibition of human HT-29 cells assessed as cell growth at 0.01 uM incubated for 48 hrs by sulforhodamine B assay relative to control; settings: HT-29, 48 h, read-out: Activity
SN12C = test: Growth inhibition of human SN12C cells assessed as cell growth at 10 uM incubated for 48 hrs by sulforhodamine B assay relative to control; settings: read-out: Activity
T47D [2] = test: Growth inhibition of human T47D cells assessed as cell growth at 0.1 uM incubated for 48 hrs by sulforhodamine B assay relative to control; settings: read-out: Activity
HOP-62 [3] = test: Growth inhibition of human HOP62 cells assessed as cell growth at 1 uM incubated for 48 hrs by sulforhodamine B assay relative to control; settings: HOP-62, 48 h, read-out: Activity
TK-10 = test: Growth inhibition of human TK10 cells assessed as cell growth at 0.01 uM incubated for 48 hrs by sulforhodamine B assay relative to control; settings: TK-10, 48 h, read-out: Activity
NCI-H522 [4] = test: Growth inhibition of human NCI-H522 cells assessed as cell growth at 1 uM incubated for 48 hrs by sulforhodamine B assay relative to control; settings: NCI-H522, 48 h, read-out: Activity
A498 = test: Growth inhibition of human A498 cells assessed as cell growth at 10 uM incubated for 48 hrs by sulforhodamine B assay relative to control; settings: A498, 48 h, read-out: Activity
SR [5] = test: Growth inhibition of human SR cells assessed as cell growth at 1 uM incubated for 48 hrs by sulforhodamine B assay relative to control; settings: read-out: Activity
KM12 = test: Growth inhibition of human KM12 cells assessed as cell growth at 0.01 uM incubated for 48 hrs by sulforhodamine B assay relative to control; settings: KM12, 48 h, read-out: Activity
DU-145 = test: Growth inhibition of human DU145 cells assessed as cell growth at 0.01 uM incubated for 48 hrs by sulforhodamine B assay relative to control; settings: DU-145, 48 h, read-out: Activity
HOP-62 [6] = test: Growth inhibition of human HOP62 cells assessed as cell growth at 10 uM incubated for 48 hrs by sulforhodamine B assay relative to control; settings: HOP-62, 48 h, read-out: Activity
CCRF-CEM [7] = test: Growth inhibition of human CCRF-CEM cells assessed as cell growth at 10 uM incubated for 48 hrs by sulforhodamine B assay relative to control; settings: read-out: Activity
NCI-H23 [8] = test: Growth inhibition of human NCI-H23 cells assessed as cell growth at 0.01 uM incubated for 48 hrs by sulforhodamine B assay relative to control; settings: NCI-H23, 48 h, read-out: Activity
Malme-3M = test: Growth inhibition of human MALME-3M cells assessed as cell growth at 0.1 uM incubated for 48 hrs by sulforhodamine B assay relative to control; settings: read-out: Activity
NCI-H226 = test: Growth inhibition of human NCI-H226 cells assessed as cell growth at 0.1 uM incubated for 48 hrs by sulforhodamine B assay relative to control; settings: NCI-H226, 48 h, read-out: Activity
NCI-H522 [9] = test: Growth inhibition of human NCI-H522 cells assessed as cell growth at 0.1 uM incubated for 48 hrs by sulforhodamine B assay relative to control; settings: NCI-H522, 48 h, read-out: Activity
SK-MEL-5 = test: Growth inhibition of human SK-MEL-5 cells assessed as cell growth at 0.01 uM incubated for 48 hrs by sulforhodamine B assay relative to control; settings: SK-MEL-5, 48 h, read-out: Activity
K562 = test: Growth inhibition of human K562 cells assessed as cell growth at 0.03 uM incubated for 48 hrs by sulforhodamine B assay relative to control; settings: K562, 48 h, read-out: Activity
UACC-257 = test: Growth inhibition of human UACC257 cells assessed as cell growth at 30 uM incubated for 48 hrs by sulforhodamine B assay relative to control; settings: UACC-257, 48 h, read-out: Activity
HCC 2998 = test: Growth inhibition of human HCC2998 cells assessed as cell growth at 0.03 uM incubated for 48 hrs by sulforhodamine B assay relative to control; settings: HCC 2998, 48 h, read-out: Activity
RPMI-8226 = test: Growth inhibition of human RPMI8226 cells assessed as cell growth at 0.3 uM incubated for 48 hrs by sulforhodamine B assay relative to control; settings: RPMI-8226, 48 h, read-out: Activity
T47D [10] = test: Growth inhibition of human T47D cells assessed as cell growth at 0.3 uM incubated for 48 hrs by sulforhodamine B assay relative to control; settings: read-out: Activity
M14 = test: Growth inhibition of human M14 cells assessed as cell growth at 0.3 uM incubated for 48 hrs by sulforhodamine B assay relative to control; settings: M14, 48 h, read-out: Activity
786-0 = test: Growth inhibition of human 786-0 cells assessed as cell growth at 0.03 uM incubated for 48 hrs by sulforhodamine B assay relative to control; settings: 786-0, 48 h, read-out: Activity
BT-549 = test: Growth inhibition of human BT549 cells assessed as cell growth at 0.3 uM incubated for 48 hrs by sulforhodamine B assay relative to control; settings: BT-549, 48 h, read-out: Activity
SF-295 = test: Growth inhibition of human SF295 cells assessed as cell growth at 0.3 uM incubated for 48 hrs by sulforhodamine B assay relative to control; settings: SF-295, 48 h, read-out: Activity
Hs-578T = test: Growth inhibition of human Hs 578T cells assessed as cell growth at 0.03 uM incubated for 48 hrs by sulforhodamine B assay relative to control; settings: read-out: Activity
NCI-H322M = test: Growth inhibition of human NCI-H322M cells assessed as cell growth at 30 uM incubated for 48 hrs by sulforhodamine B assay relative to control; settings: read-out: Activity
NCI-H23 [11] = test: Growth inhibition of human NCI-H23 cells assessed as cell growth at 0.03 uM incubated for 48 hrs by sulforhodamine B assay relative to control; settings: NCI-H23, 48 h, read-out: Activity
OVCAR-8 = test: Growth inhibition of human OVCAR8 cells assessed as cell growth at 30 uM incubated for 48 hrs by sulforhodamine B assay relative to control; settings: OVCAR-8, 48 h, read-out: Activity
SR [12] = test: Growth inhibition of human SR cells assessed as cell growth at 0.003 uM incubated for 48 hrs by sulforhodamine B assay relative to control; settings: read-out: Activity
HT-29 [13] = test: Growth inhibition of human HT-29 cells assessed as cell growth at 30 uM incubated for 48 hrs by sulforhodamine B assay relative to control; settings: HT-29, 48 h, read-out: Activity
SR [14] = test: Growth inhibition of human SR cells assessed as cell growth at 30 uM incubated for 48 hrs by sulforhodamine B assay relative to control; settings: read-out: Activity
CCRF-CEM [15] = test: Growth inhibition of human CCRF-CEM cells assessed as cell growth at 3 uM incubated for 48 hrs by sulforhodamine B assay relative to control; settings: read-out: Activity
SW-620 = test: Growth inhibition of human SW620 cells assessed as cell growth at 30 uM incubated for 48 hrs by sulforhodamine B assay relative to control; settings: SW-620, 48 h, read-out: Activity

| Compound | growth at 0.01 µM (HT-29 [1]) | growth at 10 µM (SN12C) | growth at 0.1 µM (T47D [2]) | growth at 1 µM (HOP-62 [3]) | growth at 0.01 µM (TK-10) | growth at 1 µM (NCI-H522 [4]) | growth at 10 µM (A498) | growth at 1 µM (SR [5]) | growth at 0.01 µM (KM12) | growth at 0.01 µM (DU-145) | growth at 10 µM (HOP-62 [6]) | growth at 10 µM (CCRF-CEM [7]) | growth at 0.01 µM (NCI-H23 [8]) | growth at 0.1 µM (Malme-3M) | growth at 0.1 µM (NCI-H226) | growth at 0.1 µM (NCI-H522 [9]) | growth at 0.01 µM (SK-MEL-5) | growth at 0.03 µM (K562) | growth at 30 µM (UACC-257) | growth at 0.03 µM (HCC 2998) | also measured |
| --- | --- | --- | --- | --- | --- | --- | --- | --- | --- | --- | --- | --- | --- | --- | --- | --- | --- | --- | --- | --- | --- |
| COc1cc2cc(Oc3ccc(NC(=O)Nc4ccc(Cl)c(Cl)c4)cc3)c(C)nc2cc1OC | 108% | 19% | 103% | 101% | 106% | 68% | -8% | 98% | 103% | 109% | 8% | 4% | 98% | 105% | 107% | 99% | 103% | – | – | – | – |
| COc1cc2cc(Oc3ccc(NC(=O)Nc4cc(C(F)(F)F)cc(C(F)(F)F)c4)cc3)c(C)nc2cc1OC | 97% | -75% | 95% | 70% | 96% | 63% | -43% | 69% | 98% | 103% | -82% | -33% | 99% | 87% | 101% | 77% | 100% | – | – | – | – |
| COc1cc2cc(Oc3ccc(NC(=O)Nc4ccc(Cl)c(C(F)(F)F)c4)cc3)c(C)nc2cc1OC | – | – | – | – | – | – | – | – | – | – | – | – | – | – | – | – | – | 102% | -60% | 106% | growth at 0.3 µM (RPMI-8226): 85%; growth at 0.3 µM (T47D [10]): 92%; growth at 0.3 µM (M14): 94%; growth at 0.03 µM (786-0): 83%; growth at 0.3 µM (BT-549): 85%; growth at 0.3 µM (SF-295): 93%; growth at 0.03 µM (Hs-578T): 109%; growth at 30 µM (NCI-H322M): -86%; growth at 0.03 µM (NCI-H23 [11]): 93%; growth at 30 µM (OVCAR-8): -32%; growth at 0.003 µM (SR [12]): 99%; growth at 30 µM (HT-29 [13]): -82%; growth at 30 µM (SR [14]): -43%; growth at 3 µM (CCRF-CEM [15]): -2%; growth at 30 µM (SW-620): -87% |
| Cc1nc2cc(O)c(O)cc2cc1Oc1ccc(NC(=O)Nc2ccc(Cl)c(Cl)c2)cc1 | – | – | – | – | – | – | – | – | – | – | – | – | – | – | – | – | – | 110% | -20% | 99% | growth at 0.3 µM (RPMI-8226): 97%; growth at 0.3 µM (T47D [10]): 101%; growth at 0.3 µM (M14): 93%; growth at 0.03 µM (786-0): 95%; growth at 0.3 µM (BT-549): 92%; growth at 0.3 µM (SF-295): 89%; growth at 0.03 µM (Hs-578T): 85%; growth at 30 µM (NCI-H322M): 19%; growth at 0.03 µM (NCI-H23 [11]): 92%; growth at 30 µM (OVCAR-8): 1%; growth at 0.003 µM (SR [12]): 100%; growth at 30 µM (HT-29 [13]): 13%; growth at 30 µM (SR [14]): -20%; growth at 3 µM (CCRF-CEM [15]): 76%; growth at 30 µM (SW-620): 16% |
